Where two headings read alike, the source gives them in different places.
Columns and labels:
[1] = Metabolite profiling in urine by LC-QTOF/MS after oral administration of A. paniculata extract; assay type: in vivo; conditions: tentative metabolite in human urine (pooled 0–4 and 4–8 h) after single oral A. paniculata extract
Procedure: For qualitative determination of untargeted compounds, liquid chromatography-quadrupole time-of-flight mass spectrometry (LC-QTOF/MS) was performed on an Agilent 6540 QTOF/MS (Agilent Technologies, USA) equipped with an Agilent 1260 infinity liquid chromatography system. The stationary phase of the chromatographic separation was performed on a 150 mm × 4.6 mm, 5.0 µm Phenomenex Luna C18 column (Phenomenex, USA) using a mobile phase consisting of 0.1% formic acid in water pH 2.5–2.7 (A) and 100% acetonitrile (B) at a constant flow rate of 0.5 mL/min with a controlled oven temperature at 35 °C, (and 10 µL) of injection volume. The elution gradient was started with 30%B, and was increased to 90%B within 20 min, then maintained at 95%B during 25–30 min followed by a post-run for 5 min.
Mass spectrometric analysis was performed using an ESI negative and positive modes with varying collision energies (10, 20, and 40 V) over a mass range of m/z 100–1200 Da. The MS conditions were as follows: capillary voltage = 3500 V; flow rate of drying gas (N2) = 10.0 L/min, 350 °C; nebulizer pressure = 30 psi, fragmentation voltage = 250 V for negative mode and 100 V for positive mode. All acquisition data were analyzed using MassHunter Software B.07.01 and MassHunter Qualitative Analysis Software B.08.00 (Agilent Technologies, USA). To support the metabolite identification, the MS chromatograms were determined by comparing the fragmentation patterns of metabolites and library searches in Mass Hunter, and Human Metabolome Database (HMDB). For sample preparation, pooled urine samples at 0–4 and 4–8 h were prepared using the same extraction process described in the pharmacokinetic study.

[2] = Clinical pharmacokinetics in plasma after single oral administration of A. paniculata extract; assay type: in vivo, human
Procedure: (§1) An aliquot of 50 µL of plasma or urine was placed in a 1.5 mL of polypropylene centrifuge micro-tube. Protein was removed from the sample by adding 200 µL of methanol (containing 50.00 ng/mL of IS). The mixture was vortexed for 10 min and was then centrifuged at 12,000 rpm, 4 °C for 10 min. The supernatant was filtered through a […] PVDF membrane (Chrom Tech) and transferred into a glass insert in a vial before LC‑MS/MS analysis.
(§2) The clinical pharmacokinetic study was designed as an open-labeled, with a single oral dosing, and conducted under a fasting condition. Four healthy subjects were recruited according to the following inclusion criteria: 18—55 years old with a body mass index (BMI) of 18–30 kg/m^2. Study participants were identified as healthy based on laboratory testing and physical examinations. The participants received 3 capsules containing A. paniculata extract (calculated as 60 mg of andrographolide/dose) before breakfast with 240 mL of drinking water. Blood samples, in EDTA tubes, were taken after oral administration at 0, 10, 20, 30, 45 min, and 1, 1.5, 2, 4, 6, 8, 10, 12, 24 h post dose. All blood samples were then centrifuged at 4000 ± 100 rpm, 4 °C for 5 min. Plasma was pipetted and stored in cryotubes at − 80 °C until further analysis. Urine samples were collected during 0–4, 4–8, 8–12, 12–24, 24–32, 32–40 and 40–48 h after dosing and were then kept at − 80 °C before sample extraction.
Pharmacokinetic parameters were determined by non-compartmental analysis using PK solutions software, version 2.0 (Summit Research Services). The maximum concentration of four targeted compounds (Cmax) and the time to reach maximum concentration (Tmax) were taken directly from the individual plasma concentration versus time profiles. The area under the curve from time zero to the last sampling time (AUC0-t) was estimated using the linear trapezoidal rule. The apparent volume of distribution (Vd/F) and the elimination half-life (t1/2) were determined using non-compartmental analysis.
(§3) Finally, the hydrolysis of glucuronide metabolites in the pharmacokinetic study was performed according to the following process: 50 µL of plasma or urine sample was incubated for 30 min with 50 µL of 1000 U/mL β-glucuronidase in phosphate buffer pH 6.8 (composed of 0.1 M sodium phosphate monobasic and 0.1 M sodium phosphate dibasic) at 37 °C. For the hydrolysis of sulfatase, 50 µL of 100 units/mL of sulfatase in an acetate buffer at pH 5.0 (composed of 0.1 M acetic acid and 0.1 M sodium acetate) was added into 50 µL of sample; the mixture was then incubated at 37 °C for 2 h. The reaction was stopped in all hydrolysis samples with 150 µL of cold methanol, and then protein precipitation was performed prior to LC–MS/MS analysis. However, due to unavailable standard of the conjugated forms (AP-glucuronide and […]). The quantitative analysis of conjugated metabolites was determined after the hydrolysis reaction by enzymatic digestion, and the free form was analyzed without hydrolysis. The conjugated standards of AP-glucuronide or AP-sulfate should be synthesized for determining the exact amount of the glucuronide or sulfate.

[3] = Cumulative urine excretion after single oral administration of A. paniculata extract; assay type: in vivo, human
Procedure: as §1, §2, §3

[4] = plasma
Procedure: (§4) The stability of plasma and urine samples were evaluated at three different QC concentration levels (LQC, MQC and HQC, n = 3 for each level); the conditions were freeze–thaw stability, long-term stability, short-term stability, and post preparative stability in an autosampler. The evaluation of stability under freeze–thaw condition was carried out over five cycles of − 80 °C for at least 12 h of each cycle. Long-term stability was analyzed after storing the samples at − 80 °C. Short-term stability of each analyte, for up to 8 h during processing on the bench at room temperature, was also evaluated. For evaluation of post-preparative stability, the extracted samples were stored at ambient temperature (4 °C) in an autosampler for 24 h. The analyte was considered as a stable sample when the average percentage of accuracy of the QC sample was in the range of 85–115% and the %CV was not over 15%.

[5] = Stability in urine under different storage conditions; assay type: physicochemical, human
Procedure: as §4

[6] = human, parent compound in plasma, n = 4, single oral dose of extract (60 mg andrographolide), mean ± SD
[7] = human, parent compound in plasma, n = 4, single oral dose of extract (60 mg andrographolide), median
[8] = Freeze–thaw stability 5 cycles, 2.50 ng/mL (LQC)
[9] = Freeze–thaw stability 5 cycles, 500.00 ng/mL (MQC)
[10] = Freeze–thaw stability 5 cycles, 900.00 ng/mL (HQC)
[11] = Long term stability 3 months at − 80 °C, 2.50 ng/mL (LQC)
[12] = Long term stability 3 months at − 80 °C, 500.00 ng/mL (MQC)
[13] = Long term stability 3 months at − 80 °C, 900.00 ng/mL (HQC)
[14] = Post preparative stability 24 h at autosampler, 2.50 ng/mL (LQC)
[15] = Post preparative stability 24 h at autosampler, 500.00 ng/mL (MQC)
[16] = Post preparative stability 24 h at autosampler, 900.00 ng/mL (HQC)
[17] = Short term stability 8 h at room temperature, 2.50 ng/mL (LQC)
[18] = Short term stability 8 h at room temperature, 500.00 ng/mL (MQC)
[19] = Short term stability 8 h at room temperature, 900.00 ng/mL (HQC)

## 14-Deoxy-11,12-didehydroandrographolide glucuronide [M2]
[1]
  Metabolic Pathway: Glucuronidation

## 14-Deoxyandrographolide glucuronide [M3]
[1]
  Metabolic Pathway: Glucuronidation

## C=C1CC[C@@H]2[C@](C)(CO)[C@H](O)CC[C@@]2(C)[C@@H]1CCC1=CCOC1=O [AP6, 14-deoxyandrographolide]
[2]; human, parent compound in plasma, healthy subjects n = 4, single oral dose of extract (60 mg andrographolide), mean ± SD
  Cmax: 6.33 ± 1.18 ng/mL
[2]; [6]
  AUC(0-t): 10.2 ± 2.9 ng·h/mL
  Vd/F: 1.93 ± 1.03 L/kg
[2]; [7]
  Tmax: 90 min
  half-life: 13.8 min
[2]; plasma, single oral dose of extract
  AUC of both conjugated metabolites compared to the respective parent compounds: greater
[3]
  Route of excretion: primarily excreted renally
[4]; [8]
  %Accuracy: 96.87%
  Measured concentration: 2.42 ± 0.04 ng/mL
[4]; [9]
  %Accuracy: 94.79%
  Measured concentration: 473.93 ± 25.58 ng/mL
[4]; [10]
  %Accuracy: 98.93%
  Measured concentration: 890.41 ± 25.49 ng/mL
[4]; [11]
  %Accuracy: 88.89%
  Measured concentration: 2.22 ± 0.09 ng/mL
[4]; [12]
  %Accuracy: 92.43%
  Measured concentration: 462.16 ± 14.34 ng/mL
[4]; [13]
  %Accuracy: 98.92%
  Measured concentration: 890.25 ± 20.07 ng/mL
[4]; [14]
  %Accuracy: 100.85%
  Measured concentration: 2.52 ± 0.08 ng/mL
[4]; [15]
  %Accuracy: 96.39%
  Measured concentration: 481.96 ± 2.97 ng/mL
[4]; [16]
  %Accuracy: 101.27%
  Measured concentration: 911.38 ± 18.09 ng/mL
[4]; [17]
  %Accuracy: 101.65%
  Measured concentration: 2.54 ± 0.21 ng/mL
[4]; [18]
  %Accuracy: 90.47%
  Measured concentration: 452.37 ± 10.16 ng/mL
[4]; [19]
  %Accuracy: 100.71%
  Measured concentration: 906.41 ± 47.83 ng/mL
[5]; [8]
  %Accuracy: 95.48%
  Measured concentration: 2.39 ± 0.18 ng/mL
[5]; [9]
  %Accuracy: 94.03%
  Measured concentration: 470.16 ± 19.65 ng/mL
[5]; [10]
  %Accuracy: 102.77%
  Measured concentration: 924.91 ± 7.49 ng/mL
[5]; [11]
  %Accuracy: 93.89%
  Measured concentration: 2.35 ± 0.07 ng/mL
[5]; [12]
  %Accuracy: 90.88%
  Measured concentration: 454.38 ± 21.26 ng/mL
[5]; [13]
  %Accuracy: 99.27%
  Measured concentration: 893.39 ± 24.76 ng/mL
[5]; [14]
  %Accuracy: 96.20%
  Measured concentration: 2.41 ± 0.13 ng/mL
[5]; [15]
  %Accuracy: 93.94%
  Measured concentration: 469.68 ± 35.58 ng/mL
[5]; [16]
  %Accuracy: 101.31%
  Measured concentration: 911.80 ± 10.76 ng/mL
[5]; [17]
  %Accuracy: 95.56%
  Measured concentration: 2.39 ± 0.15 ng/mL
[5]; [18]
  %Accuracy: 91.90%
  Measured concentration: 459.52 ± 16.67 ng/mL
[5]; [19]
  %Accuracy: 102.42%
  Measured concentration: 921.74 ± 21.18 ng/mL

## Andrographolide glucuronide [M1]
[1]
  Metabolic Pathway: Glucuronidation

## Andrographolide sulfate [M4]
[1]
  Metabolic Pathway: Sulfation*
